Data on 1 compound can be found in ChEMBL document CHEMBL4808180, “Identification of 2,2-Dimethylbutanoic Acid (HST5040), a Clinical Development Candidate for the Treatment of Propionic Acidemia and Methylmalonic Acidemia” (J Med Chem, 2021).

The nature of series [1]: Reduction of acetyl carnitine in human hepatocytes derived from methylmalonic acidemia patient pretreated for 30 mins followed by 13C-isoleucine addition and measured after 1 hr by MS/MS analysis. The note with it: hepatocyte. It counts as functional, cell-based.
Series [2] can be described thus: Ratio of drug level in liver to plasma in Sprague-Dawley rat at 10 mg/kg, po measured at 1 hr post dose. It counts as ADME, organism-based. Conditions: liver (relative to plasma); call rule not given here.
In another series the target is T1, Cytochrome P450 2B6 (Homo sapiens, UniProt P20813).
T1 sequence (P20813 whole entry): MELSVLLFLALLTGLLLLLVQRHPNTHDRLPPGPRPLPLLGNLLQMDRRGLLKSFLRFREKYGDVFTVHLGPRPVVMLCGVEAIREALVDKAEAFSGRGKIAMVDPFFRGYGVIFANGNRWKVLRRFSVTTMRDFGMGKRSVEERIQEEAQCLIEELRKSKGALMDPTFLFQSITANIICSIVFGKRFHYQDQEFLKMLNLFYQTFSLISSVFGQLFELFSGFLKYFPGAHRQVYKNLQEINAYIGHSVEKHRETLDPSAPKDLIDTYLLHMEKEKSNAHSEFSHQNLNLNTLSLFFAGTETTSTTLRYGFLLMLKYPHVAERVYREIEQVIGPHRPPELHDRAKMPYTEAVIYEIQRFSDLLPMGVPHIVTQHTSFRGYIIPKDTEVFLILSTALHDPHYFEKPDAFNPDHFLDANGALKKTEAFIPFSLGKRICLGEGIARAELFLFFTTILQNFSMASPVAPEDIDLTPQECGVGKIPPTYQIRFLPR
Put plainly: Direct inhibition of CYP2B6 in human liver microsomes using bupropion as substrate. It counts as ADME. (In general: Liver microsomes are vesicles of endoplasmic reticulum, rich in cytochrome P450 enzymes.)

The nature of series [3]: Reduction of CoASH in human hepatocytes derived from propionic acidemia patient at 30 uM pretreated for 30 mins followed by 13C-isoleucine addition and measured after 1 hr by MS/MS analysis relative to control. Details: scale not given: the % may be the effect or the level left. The note with it: time 90 min, 1.5 h. In kind it is functional, Hepatocyte.
Series [4] deals with T2, Multidrug and toxin extrusion protein 2 (Homo sapiens, UniProt Q86VL8).
T2 sequence (Q86VL8 whole entry): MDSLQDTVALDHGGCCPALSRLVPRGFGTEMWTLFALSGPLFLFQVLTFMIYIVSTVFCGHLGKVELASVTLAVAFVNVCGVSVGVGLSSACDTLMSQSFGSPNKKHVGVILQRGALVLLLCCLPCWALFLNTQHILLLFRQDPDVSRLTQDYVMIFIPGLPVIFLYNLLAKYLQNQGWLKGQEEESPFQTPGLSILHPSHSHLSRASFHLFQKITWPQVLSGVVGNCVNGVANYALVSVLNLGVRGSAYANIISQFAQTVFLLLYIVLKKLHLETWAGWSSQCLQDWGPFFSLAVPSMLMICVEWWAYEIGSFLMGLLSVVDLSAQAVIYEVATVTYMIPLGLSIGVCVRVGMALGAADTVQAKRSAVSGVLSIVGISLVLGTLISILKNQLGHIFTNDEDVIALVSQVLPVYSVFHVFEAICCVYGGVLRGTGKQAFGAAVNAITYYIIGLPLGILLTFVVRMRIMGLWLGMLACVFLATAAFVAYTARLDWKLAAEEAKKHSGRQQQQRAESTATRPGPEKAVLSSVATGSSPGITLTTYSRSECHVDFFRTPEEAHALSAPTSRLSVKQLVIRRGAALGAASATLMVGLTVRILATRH
In words: Inhibition of human MATE2K assessed as reduction in MATE2K-mediated metformin transport at 14900 uM relative to control.

Series [5] in a line: Reduction of acetyl-CoA in human hepatocytes derived from propionic acidemia patient pretreated for 30 mins followed by 13C-isoleucine addition and measured after 1 hr by MS/MS analysis. In kind it is functional, cell-based. The note with it: hepatocyte.
The nature of series [6]: Oral bioavailability in CD1 mouse at 300 mg/kg. Conditions: in vivo. It counts as ADME, organism-based.
Series [7] in a line: Reduction of 2-Methylcitric acid in human hepatocytes derived from methylmalonic acidemia patient at 30 uM pretreated for 30 mins followed by 13C-isoleucine addition and measured after 1 hr by MS/MS analysis relative to control. It counts as functional, Hepatocyte. Also noted: scale not given: the % may be the effect or the level left. Conditions: time 90 min, 1.5 h.
The test system of series [8] is Hepatocyte. Put plainly: Cytotoxicity against minipig hepatocytes assessed as reduction in cell viability using radiolabeled compound. In kind it is cell-based, Sus scrofa domesticus. Conditions: pig.
Series [9] is described as follows: Drug metabolism in Beagle dog hepatocytes assessed as formation of 2,2-dimethylbutanoic acid-CoA incubated for 1 hrs by MS/MS analysis. In kind it is ADME, cell-based. The note with it: Canis lupus familiaris, Hepatocyte.
Series [10] can be described thus: Stability in minipig hepatocytes assessed as unchanged compound at 50 uM measured after 4 hrs. Conditions: pig, read-out: Stabilty. In kind it is ADME, cell-based, Sus scrofa domesticus, Hepatocyte.
The nature of series [11]: Reduction of methylmalonyl-CoA in human hepatocytes derived from methylmalonic acidemia pretreated for 30 mins followed by 13C-isoleucine addition and measured after 1 hr by MS/MS analysis. In kind it is functional, cell-based. Conditions: hepatocyte.
Series [12] deals with T3, Solute carrier family 22 member 6 (Homo sapiens, UniProt Q4U2R8).
T3 sequence (Q4U2R8 whole entry): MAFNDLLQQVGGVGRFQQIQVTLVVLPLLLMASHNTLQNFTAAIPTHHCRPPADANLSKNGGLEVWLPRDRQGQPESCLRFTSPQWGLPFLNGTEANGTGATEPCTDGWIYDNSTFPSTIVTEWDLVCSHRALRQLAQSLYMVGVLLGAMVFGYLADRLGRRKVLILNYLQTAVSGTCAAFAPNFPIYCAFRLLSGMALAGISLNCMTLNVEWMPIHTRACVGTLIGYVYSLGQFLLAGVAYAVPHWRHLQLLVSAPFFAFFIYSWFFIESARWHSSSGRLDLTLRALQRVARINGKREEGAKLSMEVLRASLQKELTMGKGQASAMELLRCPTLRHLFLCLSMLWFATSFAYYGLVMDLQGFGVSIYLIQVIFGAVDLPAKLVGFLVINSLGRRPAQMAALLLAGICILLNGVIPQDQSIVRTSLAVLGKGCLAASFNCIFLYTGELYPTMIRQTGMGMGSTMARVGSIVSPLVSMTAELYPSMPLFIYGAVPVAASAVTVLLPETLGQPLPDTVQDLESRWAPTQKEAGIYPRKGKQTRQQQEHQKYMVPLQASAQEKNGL
In words: Inhibition of human OAT1 assessed as reduction in OAT1-mediated tenofovir transport.

Series [13] is described as follows: Drug metabolism in cynomolgus monkey hepatocytes assessed as formation of 2,2-dimethylbutanoic acid-CoA incubated for 1 hrs by MS/MS analysis. It counts as ADME, cell-based. Conditions: Macaca fascicularis, Hepatocyte.
The nature of series [14]: Reduction of acetyl-CoA in human hepatocytes derived from propionic acidemia patient at 30 uM pretreated for 30 mins followed by 13C-isoleucine addition and measured after 1 hr by MS/MS analysis relative to control. In kind it is functional, Hepatocyte. Details: scale not given: the % may be the effect or the level left. The note with it: time 90 min, 1.5 h.
Series [15] in a line: Tmax in CD1 mouse at 100 mg/kg, po. Conditions: in vivo. In kind it is ADME, organism-based.
Series [16] deals with Hepatocyte. In words: Cytotoxicity against rat hepatocytes assessed as reduction in cell viability using radiolabeled compound. It counts as cell-based.

The EC50 is the concentration at which the effect is half-maximal. Broadly, the Kp is the ratio of the level in a tissue or fluid to that in plasma or blood. The IC50 is the concentration needed to halve the response being measured. As a reminder, the Tmax is the time from dosing to the highest level. For the compound `CCC(C)(C)C(=O)O` [DIMEBUTIC ACID], the half-maximal effective concentration (EC50) in [1] was determined as 4.3 µM; in series [5] it was 2.3 µM; in [9], 60 µM; in series [11] it was 2 µM; in series [13], 46.2 µM. Besides, in [2], the Kp at 1 h was determined as 4.6. Further, the IC50 against Cytochrome P450 2B6 is above 10000 µM; in [12], 3860 µM. The Activity is on record as -31.3% in [3]; -66.7% in series [7]; “Non-Toxic” in the series with Hepatocyte [8]; 54% in [14]; “Non-Toxic” in the series on Hepatocyte [16]. Also, the “inhibition (INH)” value in series [4] is “Not Active”. The F in series [6] was determined as 177.5%. In series [10], the remaining at 4 h, 50 µM came out at 86%. Besides, the Tmax in series [15] is 30 min.
